Data reported in US20240108654A1, “COMBINATION OF A T CELL THERAPY AND A DGK INHIBITOR” (Juno Therapeutics, Inc., priority 2021, published 2024).
Like-named read-outs stand apart in the source and are kept apart here.

Key:
[1] = biological target: human DGKα (Homo sapiens (Human), UniProt P23743); test: DGKα liposome (LIPGLO) in vitro DGK inhibition assay; assay type: biochemical; conditions: extruded liposome substrate; 150 μM ATP; 5 nM enzyme; read-out: DGKa LIPGLO IC50
[2] = system: Human venous whole blood; test: Human whole blood IFN-γ assay; assay type: cell-based; conditions: anti-CD3 and anti-CD28 1 μg/mL each, 3 μM reference compound as 100% activation, read-out: INFg Whole Blood Normalized Agonist EC50
Protocol: Human venous whole blood (22.5 μL per well), obtained from healthy donors, was pre-treated with compounds for one hour at 37° C. in a humidified 95% air/5% CO2 incubator. The blood was stimulated with 2.5 μL anti-human CD3 and anti-CD28 mAb at a final concentration of 1 μg/mL each for 24 hours at 37° C. IFN-γ in the supernatants was measured using ALphLISA kit (Cat #AL217).

[3] = biological target: human DGKζ (Homo sapiens (Human), UniProt Q13574); test: DGKζ liposome (LIPGLO) in vitro DGK inhibition assay; assay type: biochemical; conditions: extruded liposome substrate; 150 μM ATP; 5 nM enzyme; read-out: DGKz LIPGLO IC50
Protocol: The DGKα and DGKζ reactions were performed using either extruded liposome (DGKα and DGKζ LIPGLO assays) or detergent/lipid micelle substrate (DGKα and DGKζ assays). The reactions were carried out in 50 mM MOPS pH 7.5, 100 mM NaCl, 10 mM MgCl2, 1 μM CaCl2), and 1 mM DTT (assay buffer). The reactions using a detergent/lipid micelle substrate also contained 50 mM octyl B-D-glucopyranoside. The lipid substrate concentrations were 11 mM PS and 1 mM DAG for the detergent/lipid micelle reactions. The lipid substrate concentrations were 2 mM PS, 0.25 mM DAG, and 2.75 mM PC for the extruded liposome reactions. The reactions were carried out in 150 μM ATP. The enzyme concentrations for the DGKα and DGKζ were 5 nM.
The compound inhibition studies were carried out as follows: 50 nL droplets of each test compound (top concentration 10 mM with 11 point, 3-fold dilution series for each compound) solubilized in DMSO were transferred to wells of a white 1536 well plate (Corning 3725). A 5 mL enzyme/substrate solution at 2× final reaction concentration was prepared by combining 2.5 mL 4× enzyme solution (20 nM DGKα or DGKζ (prepared as described below) in assay buffer) and 2.5 mL of either 4× liposome or 4× detergent/lipid micelle solution (compositions described below) and incubated at room temperature for 10 minutes. Next, 1 μL 2× enzyme/substrate solution was added to wells containing the test compound and reactions were initiated with the addition of 1 μL 300 uM ATP. The reactions were allowed to proceed for 1 hr, after which 2 μL Glo Reagent (Promega V9101) was added and incubated for 40 minutes. Next, 4 μL Kinase Detection Reagent was added and incubated for 30 minutes. Luminescence was recorded using an EnVision microplate reader. […] The compounds were evaluated at 11 concentrations to determine IC50.
The lipid composition was 5 mol % DAG (Avanti 8008110), 40 mol % PS (Avanti 840035P), and 55 mol % PC (Avanti 850457) at a total lipid concentration of 15.2 mg/mL for the 4× liposome solution. The PC, DAG, and PS were dissolved in chloroform, combined, and dried in vacuo to a thin film. The lipids were hydrated to 20 mM in 50 mM MOPS pH 7.5, 100 mM NaCl, 5 mM MgCl2, and were freeze-thawed five times. The lipid suspension was extruded through a 100 nm polycarbonate filter eleven times. Dynamic light scattering was carried out to confirm liposome size (50-60 nm radius). The liposome preparation was stored at 4° C. for as long as four weeks.
Human DGK-alpha-TVMV-His-pFBgate and human DGK-zeta-transcript variant-2-TVMV-His-pFBgate baculovirus samples were generated using the Bac-to-Bac baculovirus expression system (Invitrogen) according to the manufacturer's protocol. The DNA used for expression of DGK-alpha and DGK-zeta have SEQ ID NOs: 251 and 252, respectively. Baculovirus amplification was achieved using infected Sf9 cells at 1:1500 virus/cell ratios, and grown for 65 hours at 27° C. post-transfection.
The expression scale up for each protein was carried out in the Cellbag 50 L WAVE-Bioreactor System 20/50 from GE Healthcare Bioscience. 12 L of 2×10^6 cells/mL Sf9 cells (Expression System, Davis, CA) grown in ESF921 insect medium (Expression System) were infected with virus stock at 1:200 virus/cell ratios, and grown for 66-68 hours at 27° C. post-infection. The infected cell culture was harvested by centrifugation at 2000 rpm for 20 min 4° C. in a SORVALL® RC12BP centrifuge. The cell pellets were stored at −70° C. until purification. […]

[4] = system: naïve human CD8 T cells; test: Human CD8 T cells IFN-γ assay; assay type: cell-based; conditions: anti-CD3 plus anti-CD28 as baseline, 3 μM reference compound as 100% activation, 20 h, read-out: HuCD8 INFG Normalized EC50
Protocol: Frozen naïve human CD8 T cells were thawed in AIM-V media, incubated for 2 h in 37° C., and counted. The 384-well tissue culture plate was coated overnight at 4° C. with 20 μL anti-human CD3 at 0.05 μg/mL in PBS, which was removed off the plate before 40,000 cells per 40 microliters CD8 T cells with 0.1 μg/mL soluble anti-human CD28 were added to each well. The compounds were transferred using an Echo liquid handler to the cell plate immediately after the cells were plated. After 20 h incubation at 37° C. incubator, 3 microliters per well supernatants transferred into anew 384-well white assay plate for cytokine measurement.
Interferon-γ (IFN-γ) was quantitated using the AlphLISA kit (Cat #AL217) as described by the manufacturer manual (Perkin Elmer). The counts from each well were converted to IFN-γ concentration (pg/mL).

[5] = system: OT-1 antigen-specific CD8+ T cells with SIINFEKL-loaded MC38 tumor cells; test: Murine cytotoxic T lymphocyte (CTL) assay, IFN-γ readout; assay type: cell-based, mouse; conditions: IFN-γ in supernatant after 24 hours, AlphaLisa; read-out: msCTL INFg IC50
Source text: An antigen-specific cytolytic T-cell (CTL) assay was developed to evaluate functionally the ability of DGKα and DGKζ inhibitors to enhance effector T cell mediated tumor cell killing activity. CD8+ T-cells isolated from the OT-1 transgenic mouse recognize antigen presenting cells, MC38, that present the ovalbumin derived peptide […]. Recognition of the cognate antigen initiates the cytolytic activity of the OT-1 antigen-specific CD8+ T cells.
Functional CTL cells were generated as follows: OT-1 splenocytes from 8-12 week old mice were isolated and expanded in the presence of the […] peptide at 1 μg/mL and mIL2 at 10 U/mL. After three days, fresh media with […] was added. On day 5 of the expansion, the CD8+ T cells were isolated and ready for use. Activated CTL cells may be stored frozen for 6 months. Separately, one million MC38 tumor cells were pulsed with 1 μg/mL of […]-OVA peptide for 3 hours at 37° C. The cells were washed (3×) with fresh media to remove excess peptide. Finally, CTL cells that were pretreated with DGK inhibitors for 1 hour in a 96-well U bottom plate were combined with the antigen loaded MC38 tumor cells at a 1:10 ratio. The cells were then spun at 700 rpm for 5 min and placed in an incubator overnight at 37° C. After 24 hours, the supernatant was collected for analysis of IFN-γ cytokine levels by AlphaLisa purchased from Perkin Elmer.

Chain of human DGKζ (Q13574 other isoform, or with tags, fused parts or gaps isoform Q13574-4): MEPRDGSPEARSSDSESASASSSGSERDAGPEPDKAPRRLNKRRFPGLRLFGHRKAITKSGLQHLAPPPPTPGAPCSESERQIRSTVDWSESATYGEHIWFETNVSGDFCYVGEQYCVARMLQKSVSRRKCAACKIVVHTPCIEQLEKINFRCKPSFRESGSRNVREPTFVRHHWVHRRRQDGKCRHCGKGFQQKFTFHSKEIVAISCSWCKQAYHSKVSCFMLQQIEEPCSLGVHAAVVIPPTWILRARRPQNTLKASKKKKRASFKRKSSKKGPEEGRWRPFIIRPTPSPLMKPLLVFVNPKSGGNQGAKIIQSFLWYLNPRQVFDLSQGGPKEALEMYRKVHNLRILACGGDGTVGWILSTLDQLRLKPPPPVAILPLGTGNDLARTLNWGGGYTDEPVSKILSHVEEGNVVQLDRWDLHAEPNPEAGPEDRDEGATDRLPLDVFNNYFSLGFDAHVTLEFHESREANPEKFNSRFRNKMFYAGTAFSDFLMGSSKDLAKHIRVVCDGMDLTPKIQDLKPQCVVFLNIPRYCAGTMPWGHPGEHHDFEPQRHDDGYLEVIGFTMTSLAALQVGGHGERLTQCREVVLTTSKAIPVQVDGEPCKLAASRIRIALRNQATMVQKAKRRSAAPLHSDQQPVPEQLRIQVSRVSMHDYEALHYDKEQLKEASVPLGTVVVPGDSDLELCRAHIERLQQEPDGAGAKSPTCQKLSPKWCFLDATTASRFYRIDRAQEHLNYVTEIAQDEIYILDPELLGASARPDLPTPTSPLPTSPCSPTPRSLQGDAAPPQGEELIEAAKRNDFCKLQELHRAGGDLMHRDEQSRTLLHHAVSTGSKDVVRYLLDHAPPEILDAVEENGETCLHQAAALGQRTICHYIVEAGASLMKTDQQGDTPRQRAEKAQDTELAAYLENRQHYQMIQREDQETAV
Chain of human DGKα (P23743 other isoform, or with tags, fused parts or gaps): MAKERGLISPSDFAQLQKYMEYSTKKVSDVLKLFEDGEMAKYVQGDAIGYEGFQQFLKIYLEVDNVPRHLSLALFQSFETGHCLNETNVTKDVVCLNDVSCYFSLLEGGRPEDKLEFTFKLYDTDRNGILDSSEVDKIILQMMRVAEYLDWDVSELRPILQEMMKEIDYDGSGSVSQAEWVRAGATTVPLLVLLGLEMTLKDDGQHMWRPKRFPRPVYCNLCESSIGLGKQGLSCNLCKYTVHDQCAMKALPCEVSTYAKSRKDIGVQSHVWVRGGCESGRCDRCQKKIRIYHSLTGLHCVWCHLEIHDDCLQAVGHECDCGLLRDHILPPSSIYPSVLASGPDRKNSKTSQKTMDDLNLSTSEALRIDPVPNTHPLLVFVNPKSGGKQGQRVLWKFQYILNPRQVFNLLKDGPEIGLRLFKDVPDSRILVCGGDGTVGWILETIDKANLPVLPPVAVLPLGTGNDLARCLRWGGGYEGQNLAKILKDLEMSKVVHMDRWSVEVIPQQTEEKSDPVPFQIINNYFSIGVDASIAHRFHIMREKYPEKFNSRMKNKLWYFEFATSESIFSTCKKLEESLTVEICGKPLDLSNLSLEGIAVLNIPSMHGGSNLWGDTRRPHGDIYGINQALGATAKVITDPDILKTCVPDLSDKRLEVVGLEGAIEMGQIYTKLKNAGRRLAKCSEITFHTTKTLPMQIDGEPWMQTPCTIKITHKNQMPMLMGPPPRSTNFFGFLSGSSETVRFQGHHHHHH

| IC50 [1] [nM] | IC50 [3] [nM] | Structure (SMILES) | EC50 ([2]; 24 hours) [nM] | other results |
| --- | --- | --- | --- | --- |
| 67 | 29 | CCC1CN(C(c2ccc(F)cc2)c2nc(C3CC3)no2)C(CC)CN1c1nc(=O)n(C)c2ccc(C#N)nc12 (single isomer, unassigned) [Compound 25] | 15 |  |
|  |  | CC[C@@H]1CN(c2nc(=O)n(C)c3ccc(C#N)nc23)[C@@H](C)CN1C(c1ccc(Cl)cc1)c1ccccn1 (single isomer, unassigned) [Compound 24] | 200 |  |
| 870 | 1600 | C[C@@H]1CN(c2cc(=O)n(C)c3ccc(C#N)nc23)[C@@H](C)CN1C(c1ccccc1)c1ccc(F)cc1 (stereo partly drawn) [Compound 5, 8-[(2S,5R)-4-[(4-fluorophenyl)(phenyl)methyl]-2,5-dimethylpiperazin-1-yl]-5-methyl-6-oxo-5,6-dihydro-1,5-naphthyridine-2-carbonitrile] |  |  |
|  |  | CC[C@@H]1CN(c2nc(=O)n(C)c3ccc(C#N)nc23)[C@@H](C)CN1C(c1ccc(F)cc1)c1ccc(C(F)(F)F)cn1 (single isomer, unassigned) [Compound 22] |  | EC50 ([2]; Homo sapiens, 24 h): 20 nM |
|  |  | CC[C@@H]1CN(c2nc(=O)n(C)c3ccc(C#N)nc23)[C@@H](C)CN1C(C)c1ccc(C(F)(F)F)cc1 (single isomer, unassigned) [Compound 20] | 32 |  |
|  |  | CC[C@@H]1CN(c2nc(=O)n(C)c3ccc(C#N)nc23)[C@@H](C)CN1C(C)c1ccc(C(F)(F)F)cc1 (single isomer, unassigned) [Compound 19] | 520 |  |
|  |  | CC[C@@H]1CN(c2nc(=O)n(C)c3ccc(C#N)nc23)[C@@H](C)CN1C(c1ccc(F)cc1)c1ccc(C(F)(F)F)cn1 (stereo partly drawn) [Compound 21, 4-((2S,5R)-5-Ethyl-4-((4-fluorophenyl)(5-(trifluoromethyl)pyridin-2-yl)methyl)-2-methylpiperazin-1-yl)-1-methyl-2-oxo-1,2-dihydropyrido[3,2-d]pyrimidine-6-carbonitrile] |  | EC50 ([2]; Homo sapiens, 24 h): 43 nM |
| 570 | 460 | CCC(c1ccc(F)cc1F)N1C[C@H](C)N(c2cc(=O)n(C)c3ccc(C#N)nc23)C[C@H]1C (mixture of isomers) [Compound 12, 8-((2S,5R)-4-(1-(2,4-difluorophenyl)propyl)-2,5-dimethylpiperazin-1-yl)-5-methyl-6-oxo-5,6-dihydro-1,5-naphthyridine-2-carbonitrile] |  |  |
|  |  | C[C@@H]1CN(c2cc(=O)n(C)c3ccc(C#N)nc23)[C@@H](C)CN1C(c1ccccc1)c1ccc(F)cc1 (single isomer, unassigned) [Compound 7] | 570 | EC50 [4]: 47 nM; IC50 [5]: 64 nM |
| 670 | 320 | Cc1ccc(C(c2ccc(F)cc2)N2C[C@H](C)N(c3cc(=O)n(C)c4ccc(C#N)nc34)C[C@H]2C)cc1 (stereo partly drawn) [Compound 10, 8-[(2S,5R)-4-[(4-fluorophenyl)(4-methylphenyl)methyl]-2,5-dimethylpiperazin-1-yl]-5-methyl-6-oxo-5,6-dihydro-1,5-naphthyridine-2-carbonitrile] |  | EC50 ([4]; Homo sapiens, T-cell): 23 nM; EC50 ([2]; Homo sapiens, 24 h): 440 nM |
|  |  | CC[C@@H]1CN(c2nc(=O)n(C)c3ccc(C#N)nc23)[C@@H](C)CN1C(c1ccc(Cl)cc1)c1ccccn1 (single isomer, unassigned) [Compound 23] | 10500 |  |
|  |  | CCC(c1ccc(C(F)(F)F)cc1)N1C[C@H](CC)N(c2nc(=O)n(C)c3ccc(C#N)nc23)C[C@H]1CC (stereo partly drawn) [Compound 18, 4-((2S,5R)-2,5-Diethyl-4-(1-(4-(trifluoromethyl)phenyl)propyl)piperazin-1-yl)-1-methyl-2-oxo-1,2-dihydropyrido[3,2-d]pyrimidine-6-carbonitrile] | 3750 |  |
| 14 | 33 | CCC1CN(C(c2ccc(F)cc2)c2nc(C3CC3)no2)C(CC)CN1c1nc(=O)n(C)c2ccc(C#N)nc12 (single isomer, unassigned) [Compound 26] | 90 |  |
